Source: ChEMBL document CHEMBL1201862, “PubChem BioAssay data set” (2004)
The source made the active and inactive calls.

How the values were obtained:
[1] = HEp-2 cell cytotoxicity, dose response, cytotoxicity control for RSV inhibitor project, HTS (AID 2410); format: functional; conditions: human respiratory syncytial virus
Streptococcus [2] = experiment: Group A Streptococcus viability loss, dose response, counter-screen for streptokinase expression inhibitor project, luminescence, BacTiterGlo (AID 1915); format: functional, organism-based; conditions: read-out: EC50;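 also: potency for reduction of bacterial viability or growth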
[3] = test system: Streptococcus sp. 'group A'; experiment: growth inhibition of control SK(-) GAS strain, dose response, counter-screen for streptokinase expression inhibitor project, luminescence, kanamycin, BacTiterGlo, confirmation (AID 1900); format: functional, organism-based
Streptococcus [4] = experiment: Luminescence Microorganism-Based Dose Response Follow up to Identify Compounds Cytotoxic to Streptococcus. [Related pubchem assays: 1677 (Project Summary), 1915, 1914, 1902 (Retest at Dose), 1900 (Counter Screen), 1662 (Primary HTS)]; format: functional, organism-based
[5] = Luminescence Cell-Based Dose Retest to Confirm Inhibitors of Cancer Stem Cells. [Related pubchem assays (depositor defined):AID2717, AID2721]; format: functional; conditions: Homo sapiens
Streptokinase A = biological target: T1, Streptokinase A (Streptococcus pyogenes serotype M1, UniProt P10520); experiment: S. pyogenes streptokinase expression inhibitors, potency, dose response, plasminogen activation absorbance, OD405 (AID 1914); format: functional, Streptococcus pyogenes M1 GAS;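 also: secreted streptokinase activity via plasminogen activation per viability signal from cell pellet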
T1 sequence (P10520 whole entry): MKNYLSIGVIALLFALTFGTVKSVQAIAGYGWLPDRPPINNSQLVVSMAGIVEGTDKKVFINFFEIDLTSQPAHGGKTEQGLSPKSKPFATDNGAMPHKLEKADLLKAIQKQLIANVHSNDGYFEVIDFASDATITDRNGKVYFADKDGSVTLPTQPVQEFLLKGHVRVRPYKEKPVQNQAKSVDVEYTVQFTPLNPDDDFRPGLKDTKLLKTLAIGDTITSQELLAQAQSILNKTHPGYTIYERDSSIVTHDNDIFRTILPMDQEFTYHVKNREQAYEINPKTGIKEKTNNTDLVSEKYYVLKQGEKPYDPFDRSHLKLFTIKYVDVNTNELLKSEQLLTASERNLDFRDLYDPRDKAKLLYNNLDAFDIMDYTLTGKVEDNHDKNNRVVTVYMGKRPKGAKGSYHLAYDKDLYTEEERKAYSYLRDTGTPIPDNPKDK

[6] = Shn3 3'UTR reporter inhibitors, dose response, cell-based, Clone20 osteoblasts, firefly luciferase, cherry-picked (AID 624132); format: functional;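 also: firefly luciferase luminescence from reporter carrying the Shn3 3'UTR in osteoblasts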
[7] = control 3'UTR Renilla luciferase suppression, dose response, counter-screen for Shn3 inhibitor project, cell-based, Clone20-Shn3RL, cherry-picked (AID 624133); format: functional
INS1 = experiment: beta cell apoptosis inhibitors, cytokine rescue, dose response, luminescence, retest (AID 449756); format: functional, cell-based; conditions: Rattus norvegicus;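 also: cell death triggered by IL-1 beta plus TNF-alpha plus IFN-gamma mixture; protective hits raise ATP signal compared with cytokine alone wells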
[8] = biological target: Photoreceptor-specific nuclear receptor (Homo sapiens, UniProt Q9Y5X4); format: functional;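 also: potency for compounds that break the NR2E3 corepressor complex and count as activators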
[9] = biological target: Peroxisome proliferator-activated receptor gamma/Nuclear receptor corepressor 2 (Homo sapiens, UniProt P37231+Q9Y618); format: functional
[10] = biological target: Melanin-concentrating hormone receptor 1 (Homo sapiens, UniProt Q99705); experiment: Fluorescence-based counterscreen for antagonists of the G-protein coupled receptor 7 (GPR7): cell-based high throughput dose response assay to identify antagonists of the melanin-concentrating hormone receptor 1 (MCHR1).; format: functional
[11] = biological target: T2, Neuropeptides B/W receptor type 1 (Homo sapiens, UniProt P48145); experiment: Fluorescence-based dose response cell-based high throughput screening assay to identify antagonists of the G-protein coupled receptor 7 (GPR7). [Related pubchem assays: 1952 (Screening assay (GPR7 antagonists).), 1880 (Summary AID.)]; format: functional
T2 sequence (P48145 whole entry): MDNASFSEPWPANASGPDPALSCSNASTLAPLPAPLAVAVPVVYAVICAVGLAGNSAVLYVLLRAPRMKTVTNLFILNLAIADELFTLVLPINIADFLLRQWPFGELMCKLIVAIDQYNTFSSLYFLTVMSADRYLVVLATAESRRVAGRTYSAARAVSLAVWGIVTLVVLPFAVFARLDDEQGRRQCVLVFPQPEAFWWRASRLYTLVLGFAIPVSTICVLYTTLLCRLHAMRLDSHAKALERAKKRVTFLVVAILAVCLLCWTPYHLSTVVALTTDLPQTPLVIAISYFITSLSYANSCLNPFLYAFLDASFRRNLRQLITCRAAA

Chain of Photoreceptor-specific nuclear receptor (Q9Y5X4 whole entry): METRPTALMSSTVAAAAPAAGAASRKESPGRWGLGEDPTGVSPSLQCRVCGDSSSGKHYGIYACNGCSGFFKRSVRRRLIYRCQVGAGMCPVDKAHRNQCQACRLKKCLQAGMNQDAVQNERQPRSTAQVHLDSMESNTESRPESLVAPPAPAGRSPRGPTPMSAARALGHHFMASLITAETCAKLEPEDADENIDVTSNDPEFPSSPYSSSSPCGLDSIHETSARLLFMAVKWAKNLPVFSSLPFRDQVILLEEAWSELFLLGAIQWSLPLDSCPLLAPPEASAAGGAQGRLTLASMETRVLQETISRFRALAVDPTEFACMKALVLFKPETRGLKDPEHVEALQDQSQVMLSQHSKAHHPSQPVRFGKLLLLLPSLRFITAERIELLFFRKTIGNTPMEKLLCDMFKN
Chain of Peroxisome proliferator-activated receptor gamma/Nuclear receptor corepressor 2 (P37231 whole entry): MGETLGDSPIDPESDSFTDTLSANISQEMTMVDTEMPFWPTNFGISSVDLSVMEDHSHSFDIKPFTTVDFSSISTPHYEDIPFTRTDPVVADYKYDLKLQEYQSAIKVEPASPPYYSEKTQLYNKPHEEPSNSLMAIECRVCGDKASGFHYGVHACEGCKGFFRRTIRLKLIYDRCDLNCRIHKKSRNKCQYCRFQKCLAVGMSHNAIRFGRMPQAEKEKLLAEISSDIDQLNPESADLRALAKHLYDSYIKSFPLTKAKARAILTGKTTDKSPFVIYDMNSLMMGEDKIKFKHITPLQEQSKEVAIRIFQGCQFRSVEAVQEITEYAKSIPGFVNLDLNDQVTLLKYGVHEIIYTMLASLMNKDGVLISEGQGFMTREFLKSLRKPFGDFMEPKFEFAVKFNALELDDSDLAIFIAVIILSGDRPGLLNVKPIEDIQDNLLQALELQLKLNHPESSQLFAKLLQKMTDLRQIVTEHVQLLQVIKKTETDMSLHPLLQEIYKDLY
Chain of Peroxisome proliferator-activated receptor gamma/Nuclear receptor corepressor 2 (Q9Y618 whole entry): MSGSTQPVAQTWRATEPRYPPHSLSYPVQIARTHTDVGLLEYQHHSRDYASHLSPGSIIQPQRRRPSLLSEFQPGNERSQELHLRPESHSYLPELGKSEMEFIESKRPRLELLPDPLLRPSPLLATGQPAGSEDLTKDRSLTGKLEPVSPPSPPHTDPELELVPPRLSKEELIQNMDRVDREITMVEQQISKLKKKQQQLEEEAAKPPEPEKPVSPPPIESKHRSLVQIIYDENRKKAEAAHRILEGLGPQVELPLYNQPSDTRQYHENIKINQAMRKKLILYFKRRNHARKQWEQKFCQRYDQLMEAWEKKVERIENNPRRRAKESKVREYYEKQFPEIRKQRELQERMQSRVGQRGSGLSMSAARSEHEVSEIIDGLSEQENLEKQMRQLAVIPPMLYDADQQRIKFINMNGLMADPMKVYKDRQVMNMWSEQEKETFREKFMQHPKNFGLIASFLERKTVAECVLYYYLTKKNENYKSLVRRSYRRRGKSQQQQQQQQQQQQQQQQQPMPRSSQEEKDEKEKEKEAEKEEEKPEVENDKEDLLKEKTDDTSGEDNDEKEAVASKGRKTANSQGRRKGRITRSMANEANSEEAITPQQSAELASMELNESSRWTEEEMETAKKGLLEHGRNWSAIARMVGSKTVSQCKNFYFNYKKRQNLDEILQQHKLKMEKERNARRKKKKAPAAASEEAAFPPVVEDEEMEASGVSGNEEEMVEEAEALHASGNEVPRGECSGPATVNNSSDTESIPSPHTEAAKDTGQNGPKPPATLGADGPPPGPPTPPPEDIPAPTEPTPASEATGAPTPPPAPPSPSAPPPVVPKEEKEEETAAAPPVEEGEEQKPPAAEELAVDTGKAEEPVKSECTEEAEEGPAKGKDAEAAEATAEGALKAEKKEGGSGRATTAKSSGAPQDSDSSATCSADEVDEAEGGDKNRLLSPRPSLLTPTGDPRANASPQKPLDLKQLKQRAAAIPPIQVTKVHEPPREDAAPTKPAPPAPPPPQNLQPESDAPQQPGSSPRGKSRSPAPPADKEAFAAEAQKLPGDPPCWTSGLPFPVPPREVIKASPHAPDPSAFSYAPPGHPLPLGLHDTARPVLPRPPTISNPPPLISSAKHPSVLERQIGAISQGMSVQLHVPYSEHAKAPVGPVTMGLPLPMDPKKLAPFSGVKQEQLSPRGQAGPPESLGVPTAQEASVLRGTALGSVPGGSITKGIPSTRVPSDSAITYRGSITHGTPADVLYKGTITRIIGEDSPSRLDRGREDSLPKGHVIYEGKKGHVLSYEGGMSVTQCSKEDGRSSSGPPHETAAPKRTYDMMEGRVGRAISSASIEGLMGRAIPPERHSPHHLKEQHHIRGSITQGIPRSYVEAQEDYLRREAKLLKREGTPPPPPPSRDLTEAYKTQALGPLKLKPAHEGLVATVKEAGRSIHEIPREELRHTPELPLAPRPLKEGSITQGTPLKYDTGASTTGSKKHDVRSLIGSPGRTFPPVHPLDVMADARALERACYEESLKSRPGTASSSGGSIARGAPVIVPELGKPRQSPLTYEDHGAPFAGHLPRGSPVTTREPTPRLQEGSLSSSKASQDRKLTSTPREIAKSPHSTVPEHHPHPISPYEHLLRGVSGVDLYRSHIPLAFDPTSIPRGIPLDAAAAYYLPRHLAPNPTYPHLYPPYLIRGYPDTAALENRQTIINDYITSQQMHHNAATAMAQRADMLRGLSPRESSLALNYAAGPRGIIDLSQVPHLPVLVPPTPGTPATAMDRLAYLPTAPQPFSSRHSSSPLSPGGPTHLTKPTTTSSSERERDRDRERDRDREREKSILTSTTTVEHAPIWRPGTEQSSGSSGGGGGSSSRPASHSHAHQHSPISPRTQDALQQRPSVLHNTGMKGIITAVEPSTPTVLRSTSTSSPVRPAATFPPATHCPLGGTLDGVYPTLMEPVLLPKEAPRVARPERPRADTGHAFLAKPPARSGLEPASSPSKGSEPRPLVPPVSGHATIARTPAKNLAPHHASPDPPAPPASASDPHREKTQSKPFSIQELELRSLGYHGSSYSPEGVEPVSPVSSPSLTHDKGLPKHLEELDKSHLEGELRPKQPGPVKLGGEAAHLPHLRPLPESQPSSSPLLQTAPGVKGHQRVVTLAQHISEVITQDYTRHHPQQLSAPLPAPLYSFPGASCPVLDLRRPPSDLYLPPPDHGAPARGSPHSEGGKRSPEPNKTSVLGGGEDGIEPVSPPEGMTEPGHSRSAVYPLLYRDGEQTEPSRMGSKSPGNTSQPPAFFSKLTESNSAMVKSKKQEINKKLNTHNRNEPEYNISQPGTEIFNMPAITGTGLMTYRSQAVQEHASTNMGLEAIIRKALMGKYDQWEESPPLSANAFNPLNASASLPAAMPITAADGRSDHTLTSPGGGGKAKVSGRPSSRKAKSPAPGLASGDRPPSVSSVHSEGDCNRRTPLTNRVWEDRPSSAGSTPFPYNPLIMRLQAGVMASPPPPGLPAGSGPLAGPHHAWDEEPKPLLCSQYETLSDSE
Chain of Melanin-concentrating hormone receptor 1 (Q99705 whole entry): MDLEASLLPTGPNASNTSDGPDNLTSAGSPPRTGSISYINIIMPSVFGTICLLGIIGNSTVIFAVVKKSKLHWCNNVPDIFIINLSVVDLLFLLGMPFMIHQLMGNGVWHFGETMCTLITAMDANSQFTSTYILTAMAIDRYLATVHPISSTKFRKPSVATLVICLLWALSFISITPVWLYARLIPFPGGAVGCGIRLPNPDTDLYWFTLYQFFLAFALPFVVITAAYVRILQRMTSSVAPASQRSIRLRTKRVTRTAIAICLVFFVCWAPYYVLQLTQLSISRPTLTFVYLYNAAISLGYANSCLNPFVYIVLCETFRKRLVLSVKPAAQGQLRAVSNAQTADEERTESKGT

In the case of `COC(=O)C1=C(C)N(Cc2ccco2)C(=O)N[C@H]1c1ccccc1`, the IC50 (cells) is reported as 21.8 µM (active) and the CC50 [1] is reported as > 50 µM (active).
With `COC(=O)c1ccccc1NC(=O)c1nc(S(=O)(=O)Cc2ccccc2)ncc1Cl` the EC50 (Streptococcus [2]) was > 150 µM (not active), the EC50 [3] was > 50 µM (not active) and the EC50 (Streptococcus [4]) was > 56 µM (not active). For the same compound, the AC50 [5] was 1.84 µM (active), the EC50 (Streptokinase A) was 3.08 µM (active) and the AC50 [6] was 0.428 µM (active). For the same compound, the AC50 [7] was 8.03 µM (active) and the AC50 (INS1) was 6.88 µM (active).
For `CCOc1cccc(C2C(C(=O)c3ccc(C)o3)=C(O)C(=O)N2CCCn2ccnc2)c1` (stereo unspecified), the IC50 [8] was > 39.8 µM (not active) and the IC50 [9] was 16.8 µM (not active).
For `O=P(Cc1cc(Br)cc(Br)c1OCCO)(c1ccccc1)c1ccccc1`, the IC50 [10] was 9.96 µM (active) and the IC50 [11] was > 43.8 µM (not active).
In the case of `CCCCOc1ccc(-c2c(C#N)c(S)nc(C)c2C(=O)Nc2ccccc2)cc1`, the IC50 [8] is reported as 0.33 µM (active) and the IC50 [9] is reported as 0.778 µM (active).
